From ChEMBL document CHEMBL1201862, “PubChem BioAssay data set” (2004)
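Five concentrations, 48 hours, 96-well plates. GI50: concentration for 50% inhibition of growth.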 Activity calls are given as the source filed them. Rule as the data show it: active = GI50 up to about 1.1 µM and inactive = higher.

Tests used:
Experiment in all cases: NCI tumour cell line growth inhibition, 48 h
786-0 = test system: 786-0
A498 = test system: A498
A549 = test system: A549
ACHN = test system: ACHN
CCRF-CEM = test system: CCRF-CEM
COLO 205 = test system: COLO 205
DLD-1 = test system: DLD-1
DMS-114 = test system: DMS-114
DMS-273 = test system: DMS-273
EKVX = test system: EKVX
HCC 2998 = test system: HCC 2998
HCT-116 = test system: HCT-116
HCT-15 = test system: HCT-15
HL-60 = test system: HL-60
HOP-18 = test system: HOP-18
HOP-62 = test system: HOP-62
HOP-92 = test system: HOP-92
IGROV-1 = test system: IGROV-1
K562 = test system: K562
KM-20L2 = test system: KM-20L2
KM12 = test system: KM12
LOX IMVI = test system: LOX IMVI
LXFL 529 = test system: LXFL 529
M14 = test system: M14
M19-MEL = test system: M19-MEL
MOLT-4 = test system: MOLT-4
Malme-3M = test system: Malme-3M
NCI-H460 = test system: NCI-H460
OVCAR-3 = test system: OVCAR-3
OVCAR-4 = test system: OVCAR-4
OVCAR-5 = test system: OVCAR-5
OVCAR-8 = test system: OVCAR-8
RPMI-8226 = test system: RPMI-8226
RXF 393 = test system: RXF 393
RXF 631 = test system: RXF 631
SF-268 = test system: SF-268
SF-295 = test system: SF-295
SF-539 = test system: SF-539
SK-MEL-28 = test system: SK-MEL-28
SK-MEL-2 = test system: SK-MEL-2
SK-MEL-5 = test system: SK-MEL-5
SK-OV-3 = test system: SK-OV-3
SN12C = test system: SN12C
SNB-19 = test system: SNB-19
SNB-75 = test system: SNB-75
SNB-78 = test system: SNB-78
SR = test system: SR
SW-620 = test system: SW-620
TK-10 = test system: TK-10
U-251 = test system: U-251
UACC-257 = test system: UACC-257
UACC-62 = test system: UACC-62
UO-31 = test system: UO-31
XF498 = test system: XF498
CAKI-1 = test system: CAKI-1
HT-29 = test system: HT-29
NCI-H226 = test system: NCI-H226
NCI-H23 = test system: NCI-H23
NCI-H522 = test system: NCI-H522

With `CCc1cc2c(Nc3ccccc3)c3c(nc2s1)CCCC3` as the compound, how does the GI50 (786-0) read?
The GI50 was 29.2 µM (inactive).

And the GI50 (A498)?
Its GI50 is 25.8 µM (inactive).

And the GI50 (A549)?
The GI50 was 8.53 µM (inactive).

And the GI50 (ACHN)?
Its GI50 is 94.2 µM (inactive).

And the GI50 (CCRF-CEM)?
Its GI50 is 20.9 µM (inactive).

And the GI50 (COLO 205)?
The GI50 was > 100 µM (inactive).

And the GI50 (DLD-1)?
Its GI50 is 19.4 µM (inactive).

And the GI50 (DMS-114)?
Its GI50 is 27.5 µM (inactive).

What about the GI50 (DMS-273) of the same compound?
The GI50 was > 100 µM (inactive).

What about the GI50 (EKVX) of the same compound?
Its GI50 is > 100 µM (inactive).

What about the GI50 (HCC 2998) of the same compound?
Its GI50 is > 100 µM (inactive).

And the GI50 (HCT-116)?
The GI50 was 9.35 µM (inactive).

What about the GI50 (HCT-15) of the same compound?
The GI50 was 38.8 µM.

What about the GI50 (HL-60) of the same compound?
Its GI50 is 6.05 µM (inactive).

What about the GI50 (HOP-18) of the same compound?
Its GI50 is > 100 µM (inactive).

And the GI50 (HOP-62)?
Its GI50 is 79.4 µM (inactive).

And the GI50 (HOP-92)?
The GI50 was 16.7 µM (inactive).

And the GI50 (IGROV-1)?
The GI50 was > 100 µM (inactive).

And the GI50 (K562)?
Its GI50 is 3.41 µM (inactive).

And the GI50 (KM-20L2)?
Its GI50 is > 100 µM (inactive).

What about the GI50 (KM12) of the same compound?
The GI50 was > 100 µM (inactive).

What about the GI50 (LOX IMVI) of the same compound?
Its GI50 is 11.4 µM (inactive).

And the GI50 (LXFL 529)?
Its GI50 is 14.2 µM (inactive).

What about the GI50 (M14) of the same compound?
Its GI50 is > 100 µM (inactive).

And the GI50 (M19-MEL)?
Its GI50 is 40.7 µM (inactive).

And the GI50 (MOLT-4)?
Its GI50 is 3.23 µM (inactive).

And the GI50 (Malme-3M)?
The GI50 was > 100 µM (inactive).

And the GI50 (NCI-H460)?
Its GI50 is > 100 µM (inactive).

What about the GI50 (OVCAR-3) of the same compound?
Its GI50 is 6.56 µM (inactive).

And the GI50 (OVCAR-4)?
Its GI50 is 24 µM (inactive).

And the GI50 (OVCAR-5)?
The GI50 was > 100 µM (inactive).

And the GI50 (OVCAR-8)?
The GI50 was > 100 µM (inactive).

What about the GI50 (RPMI-8226) of the same compound?
The GI50 was 3.71 µM (inactive).

And the GI50 (RXF 393)?
Its GI50 is 22.4 µM (inactive).

And the GI50 (RXF 631)?
The GI50 was 35.2 µM (inactive).

What about the GI50 (SF-268) of the same compound?
Its GI50 is 76.6 µM (inactive).

What about the GI50 (SF-295) of the same compound?
Its GI50 is 28.8 µM (inactive).

And the GI50 (SF-539)?
The GI50 was 43 µM (inactive).

What about the GI50 (SK-MEL-28) of the same compound?
Its GI50 is > 100 µM (inactive).

What about the GI50 (SK-MEL-2) of the same compound?
Its GI50 is > 100 µM (inactive).

What about the GI50 (SK-MEL-5) of the same compound?
The GI50 was 4.79 µM (inactive).

What about the GI50 (SK-OV-3) of the same compound?
Its GI50 is > 100 µM (inactive).

And the GI50 (SN12C)?
The GI50 was > 100 µM (inactive).

What about the GI50 (SNB-19) of the same compound?
The GI50 was > 100 µM (inactive).

And the GI50 (SNB-75)?
Its GI50 is 7.46 µM (inactive).

And the GI50 (SNB-78)?
Its GI50 is 28.9 µM (inactive).

What about the GI50 (SR) of the same compound?
The GI50 was 5.3 µM (inactive).

What about the GI50 (SW-620) of the same compound?
Its GI50 is 80.5 µM (inactive).

What about the GI50 (TK-10) of the same compound?
Its GI50 is > 100 µM (inactive).

What about the GI50 (U-251) of the same compound?
The GI50 was 22 µM (inactive).

And the GI50 (UACC-257)?
Its GI50 is > 100 µM (inactive).

What about the GI50 (UACC-62) of the same compound?
Its GI50 is 15.3 µM (inactive).

And the GI50 (UO-31)?
The GI50 was 3.99 µM (inactive).

And the GI50 (XF498)?
Its GI50 is 13.4 µM (inactive).

Which results are given for `O=c1nc(N2CCCC2)nc(N2CCCC2)s1`?
GI50 (786-0): > 100 µM (inactive); GI50 (A498): > 100 µM (inactive); GI50 (A549): > 100 µM (inactive); GI50 (ACHN): > 100 µM (inactive); GI50 (CAKI-1): 97.9 µM (inactive); GI50 (CCRF-CEM): > 100 µM (inactive); GI50 (DLD-1): > 100 µM (inactive); GI50 (DMS-114): > 100 µM (inactive); GI50 (DMS-273): > 100 µM (inactive); GI50 (EKVX): > 100 µM (inactive); GI50 (HCC 2998): > 100 µM (inactive); GI50 (HCT-116): > 100 µM (inactive); GI50 (HCT-15): > 100 µM; GI50 (HL-60): > 100 µM (inactive); GI50 (HOP-18): > 100 µM (inactive); GI50 (HOP-62): > 100 µM (inactive); GI50 (HOP-92): > 100 µM (inactive); GI50 (HT-29): > 100 µM (inactive); GI50 (IGROV-1): > 100 µM (inactive); GI50 (K562): > 100 µM (inactive); GI50 (KM-20L2): > 100 µM (inactive); GI50 (KM12): > 100 µM (inactive); GI50 (LOX IMVI): > 100 µM (inactive); GI50 (LXFL 529): > 100 µM (inactive); GI50 (M14): > 100 µM (inactive); GI50 (M19-MEL): > 100 µM (inactive); GI50 (MOLT-4): > 100 µM (inactive); GI50 (Malme-3M): > 100 µM (inactive); GI50 (NCI-H226): 7.21 µM (inactive); GI50 (NCI-H23): > 100 µM (inactive); GI50 (NCI-H460): > 100 µM (inactive); GI50 (NCI-H522): > 100 µM (inactive); GI50 (OVCAR-4): > 100 µM (inactive); GI50 (OVCAR-5): > 100 µM (inactive); GI50 (OVCAR-8): > 100 µM (inactive); GI50 (RPMI-8226): > 100 µM (inactive); GI50 (RXF 393): > 100 µM (inactive); GI50 (RXF 631): > 100 µM (inactive); GI50 (SF-268): > 100 µM (inactive); GI50 (SF-295): > 100 µM (inactive); GI50 (SF-539): > 100 µM (inactive); GI50 (SK-MEL-28): > 100 µM (inactive); GI50 (SK-MEL-2): > 100 µM (inactive); GI50 (SK-MEL-5): > 100 µM (inactive); GI50 (SK-OV-3): > 100 µM (inactive); GI50 (SN12C): > 100 µM (inactive); GI50 (SNB-19): > 100 µM (inactive); GI50 (SNB-75): > 100 µM (inactive); GI50 (SNB-78): > 100 µM (inactive); GI50 (SR): > 100 µM (inactive); GI50 (SW-620): > 100 µM (inactive); GI50 (TK-10): > 100 µM (inactive); GI50 (U-251): > 100 µM (inactive); GI50 (UACC-257): > 100 µM (inactive); GI50 (UACC-62): > 100 µM (inactive); GI50 (UO-31): 78.7 µM (inactive); GI50 (XF498): > 100 µM (inactive)
